Experimental data taken from US4088653A, “Tetrahydropyridyl derivatives” (Canadian Patents and Developments Limited, priority 1976, dated 1978).
Read-outs that look alike come from different tables or passages of the source.

Experiments:
phenylquinone-writhing = experiment: Analgesic activity, phenylquinone-writhing test; format: in vivo, Swiss albino mice; details: for ED50: Mus musculus, sc, read-out: Ed50 (analgesic activity); for Analgesic activity (in words): mouse, in vivo
Procedure: (§1) Initially the activity of the compound tested on an animal was determined at a single dose. If the substance was active at this dose, it was subjected to limited repeat testing. If the presence of activity was confirmed by repetition of the testing, a dose response relation was constructed and the effective dose (ED50) determined. If toxicity was encountered with the initial dose, the dose was reduced until one was reached which was tolerated by the animals tested.
The active ingredients were suspended in a solution of physiological saline and "Tween 80" (TM) surfactant. A dose amounting to 10 milliliters of physiological saline solution and active ingredient per kilogram of bodyweight was administered to the mice according to the dosage as set out in Table 2.

blood-glucose = experiment: Determination of blood-glucose (hyperglycemic activity); format: in vivo, Wistar rats; details: for Hyperglycemic activity (in words): rat, in vivo; for % change in blood-glucose concentrations: oral, fasted Wistar rats, 4 hours post-treatment
Procedure: as §1
Substances were suspended in distilled water and were administered orally to over-night fasted Wistar rats. […] (Escalab ® G:15) (Barthelmai and Czok, Klinische Wochenschrift 40: 585 (1962)).

carageenan inflamed paw = experiment: Anti-inflammatory activity, carageenan-inflamed hind paw volume; format: in vivo, Sprague-Dawley rats; details: for Response % animals protected, 3 hours after drug / Response % animals protected, 5 hours after drug: subcutaneous, Sprague-Dawley rats; for Anti-inflammatory activity (in words): rat, in vivo
Procedure: as §1
Substances were administered subcutaneously to Sprague-Dawley rats, weighing 100-120 g. A suspension of 0.03% carageenan was injected under the plantar skin of a hind paw. The increase in volume of the inflamed paw was measured 3 and 5 hours after drug administration.

[1] = 32 mg/kg, subcutaneous, Swiss albino mice
[2] = 64 mg/kg, subcutaneous, Swiss albino mice
[3] = 128 mg/kg, subcutaneous, Swiss albino mice
[4] = 256 mg/kg, subcutaneous, Swiss albino mice
[5] = subcutaneous, Swiss albino mice, method of Litchfield and Wilcoxon

SMILES | Hyperglycemic activity (in words) (blood-glucose) | Response % animals protected, 3 hours after drug (carageenan inflamed paw; 64 mg/kg) [%] | Response % animals protected, 5 hours after drug (carageenan inflamed paw; 64 mg/kg) [%] | Anti-inflammatory activity (in words) (carageenan inflamed paw) | Response % inhibition (phenylquinone-writhing) (phenylquinone-writhing; [1]) [%] | Response % inhibition (phenylquinone-writhing) (phenylquinone-writhing; [2]) [%] | Response % inhibition (phenylquinone-writhing) (phenylquinone-writhing; [3]) [%] | Response % inhibition (phenylquinone-writhing) (phenylquinone-writhing; [4]) [%] | ED50 (phenylquinone-writhing; [5]) [mg/kg] | Analgesic activity (in words) (phenylquinone-writhing) | other results
CC(=O)Oc1ccccc1C(=O)O [Aspirin (TM), reference compound] | – | – | – | – | – | – | – | – | – | – | ED50 (phenylquinone-writhing): 52 mg/kg
O=C(NN1CC=CCC1)c1ccncc1 [Compound A-13, N-(4-pyridylcarbonylimino)-1,2,5,6-tetrahydropyridine] | demonstrated hyperglycemic activity | 25 | 75 | striking anti-inflammatory action | 38.6 | 58.0 | 80.8 | 96.0 | 53 | active analgesics | Hyperglycemic activity (in words) (blood-glucose; listed as A13): hyper-; Anti-inflammatory activity (in words) (carageenan inflamed paw; listed as A13): anti-inflammatory; Analgesic activity (in words) (phenylquinone-writhing; listed as A13): analgesic
O=C(NN1CC=CCC1)c1cccnc1 [Compound A-14, N-(3-pyridylcarbonylimino)-1,2,5,6-tetrahydropyridine] | demonstrated hyperglycemic activity | 50 | 0 | – | 38.9 | 59.2 | 81.2 | 89.6 | 47 | active analgesics | Hyperglycemic activity (in words) (blood-glucose; listed as A14): hyper-; Analgesic activity (in words) (phenylquinone-writhing; listed as A14): analgesic
O=C(NN1CC=CCC1)c1ccccn1 [Compound A-19, N-(2-pyridylcarbonylimino)-1,2,5,6-tetrahydropyridine] | demonstrated hyperglycemic activity | 25 | 75 | striking anti-inflammatory action | – | – | 57.3 | – | – | active analgesics | % change in blood-glucose concentrations (blood-glucose; 100 mg/kg): +50%; % change in blood-glucose concentrations (blood-glucose; 200 mg/kg): +50%; Hyperglycemic activity (in words) (blood-glucose; listed as A19): hyper-; Anti-inflammatory activity (in words) (carageenan inflamed paw; listed as A19): anti-inflammatory; Analgesic activity (in words) (phenylquinone-writhing; listed as A19): analgesic
O=C(NN1CC=CCC1)c1ccccc1 [Compound A-20, N-(benzoylimino)-1,2,5,6-tetrahydropyridine] | – | 25 | 50 | – | 57.4 | 59.0 | 88.2 | 98.0 | 36 | active analgesics | Response % inhibition (phenylquinone-writhing) (phenylquinone-writhing; 16 mg/kg, subcutaneous, Swiss albino mice): 26.2%; Analgesic activity (in words) (phenylquinone-writhing; listed as A20): analgesic
O=C(NN1CCC=C(CCCO)C1)c1ccccc1 [Compound A-21, N-(benzoylimino)-3-(3^1-hydroxypropyl)-1,2,5,6-tetrahydropyridine] | – | – | – | – | – | – | 20 | – | – | analgesic (slight) | –
O=C(NN1CCC=C(CCCO)C1)c1ccncc1 [Compound A-22, N-(4-pyridylcarbonylimino)-3-(3^1-hydroxypropyl)-1,2,5,6-tetrahydropyridine] | – | – | – | – | – | – | 43 | – | – | analgesic (slight) | –
O=C(NN1CC=C(CCCO)CC1)c1ccncc1 [Compound A-23, N-(4-pyridylcarbonylimino)-4-(3^1-hydroxypropyl)-1,2,5,6-tetrahydropyridine] | – | 25 | 75 | striking anti-inflammatory action | – | – | 11 | – | – | – | Anti-inflammatory activity (in words) (carageenan inflamed paw; listed as A23): anti-inflammatory
COc1ccc2c(c1)c(CC(=O)O)c(C)n2C(=O)c1ccc(Cl)cc1 [Indomethazine (TM), reference compound] | – | – | – | – | – | – | – | – | – | – | Response % animals protected, 3 hours after drug (carageenan inflamed paw; 12 mg/kg): 50%; Response % animals protected, 5 hours after drug (carageenan inflamed paw; 12 mg/kg): 50%
